Reference: patent US20230265151A1, “GIP/GLP1 CO-AGONIST COMPOUNDS” (priority 2020, published 2023)
Read-outs that look alike come from different tables or passages of the source. *1 amine or outer side, *2 acyl side, *3 side chain or, on linkers, in order; H or OH if unused. Where a SMILES comes first, the peptide text is derived from it. Side-chain parts run from the residue outwards. [ ]: non-standard residue; d: D form. The star is where a group is joined. αMePhe(2-F) = C[C@](N)(Cc1ccccc1F)C(=O)O; γGlu = O=C(O)[C@H](CCC(=O)[*:2])N[*:1]; C14 diacid = O=C(O)CCCCCCCCCCCCC(=O)*; αMeF = C[C@](N)(Cc1ccccc1)C(=O)O; 4Pal = N[C@@H](Cc1ccncc1)C(=O)O; αMeL = CC(C)C[C@](C)(N)C(=O)O; Orn = NCCC[C@H](N)C(=O)O; AEEA = NCCOCCOCC(=O)O; Aib = CC(C)(N)C(=O)O

Assays:
Format in all cases: cell-based
hGIPR = molecular target: T1, hGIPR (Homo sapiens, UniProt P48546); test: Functional cAMP formation (HTRF) in HEK-293 clonal cells expressing hGIPR, 0.1% bovine casein, without or with 1.0% human serum albumin; conditions: for Emax: read-out: hGIPR Emax, % ± SEM; for EC50: geometric mean, read-out: hGIPR EC50, nM (SEM, n)
T1 construct: expressed in transfected cells
T1 sequence (P48546 22-466): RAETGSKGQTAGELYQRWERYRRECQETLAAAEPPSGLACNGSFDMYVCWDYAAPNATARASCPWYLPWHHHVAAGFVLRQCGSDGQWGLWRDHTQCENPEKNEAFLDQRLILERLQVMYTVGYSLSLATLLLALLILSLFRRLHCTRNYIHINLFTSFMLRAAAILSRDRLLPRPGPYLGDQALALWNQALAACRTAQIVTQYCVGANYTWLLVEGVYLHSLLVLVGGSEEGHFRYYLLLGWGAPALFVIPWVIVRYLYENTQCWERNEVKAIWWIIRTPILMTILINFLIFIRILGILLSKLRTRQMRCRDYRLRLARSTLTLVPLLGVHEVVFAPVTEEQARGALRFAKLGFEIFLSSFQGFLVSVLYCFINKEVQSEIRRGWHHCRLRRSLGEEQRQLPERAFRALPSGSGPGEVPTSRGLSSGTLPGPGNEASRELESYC
How it was run: (§1)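 Readings of the HTRF 665/620 nm ratio, which falls as cAMP rises, were converted to nM cAMP using a standard curve after 30 min peptide exposure at 37° C.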

hGCGR = molecular target: T2, hGCGR (Homo sapiens, UniProt P47871); test: Functional cAMP formation (HTRF) in HEK-293 clonal cells expressing hGCGR, 0.1% bovine casein, without or with 1.0% human serum albumin; conditions: read-out: hGCGR EC50, nM (SEM, n)
T2 construct: expressed in transfected cells
How it was run: as §1

hGLP-1R = hGLP-1R (Homo sapiens, UniProt P43220); test: Functional cAMP formation (HTRF) in HEK-293 clonal cells expressing hGLP-1R, 0.1% bovine casein, without or with 1.0% human serum albumin; parameters: expressed in transfected cells; conditions: for Emax: read-out: hGLP-1R Emax, % ± SEM; for EC50: geometric mean, read-out: hGLP-1R EC50, nM (SEM, n)
How it was run: as §1

[1] = HEK293, percent of maximal response to GIP(1-42)NH2, 37° C., 0.1% bovine casein, arithmetic mean
[2] = cAMP, incubated at 37° C., 0.1% bovine casein (no human serum albumin)
[3] = cAMP, incubated at 37° C., 0.1% bovine casein (no human serum albumin), geometric mean
[4] = HEK293, percent of maximal response to GLP-1(7-36)NH2, 37° C., 0.1% bovine casein, arithmetic mean
[5] = 0.1% bovine casein and 1.0% human serum albumin, 37° C.
[6] = HEK293, 0.1% bovine casein and 1.0% human serum albumin, 37° C., percent of maximal response to GIP(1-42)NH2
[7] = 0.1% bovine casein and 1.0% human serum albumin, 37° C., geometric mean
[8] = cAMP, 37° C., 0.1% bovine casein (no human serum albumin)

Sequence of hGLP-1R (P43220 24-463): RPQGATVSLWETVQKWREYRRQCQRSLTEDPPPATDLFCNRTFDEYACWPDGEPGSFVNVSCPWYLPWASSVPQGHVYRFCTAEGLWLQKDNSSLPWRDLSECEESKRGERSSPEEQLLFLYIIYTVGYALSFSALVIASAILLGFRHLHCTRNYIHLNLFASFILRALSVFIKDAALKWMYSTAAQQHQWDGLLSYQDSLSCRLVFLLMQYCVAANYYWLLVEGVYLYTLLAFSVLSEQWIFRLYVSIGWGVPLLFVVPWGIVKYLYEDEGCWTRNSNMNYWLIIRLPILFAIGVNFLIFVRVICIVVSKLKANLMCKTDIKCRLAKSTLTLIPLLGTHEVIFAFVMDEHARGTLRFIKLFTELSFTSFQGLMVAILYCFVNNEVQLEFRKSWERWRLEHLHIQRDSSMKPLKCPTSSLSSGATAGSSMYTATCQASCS
T2 sequence (P47871 26-477): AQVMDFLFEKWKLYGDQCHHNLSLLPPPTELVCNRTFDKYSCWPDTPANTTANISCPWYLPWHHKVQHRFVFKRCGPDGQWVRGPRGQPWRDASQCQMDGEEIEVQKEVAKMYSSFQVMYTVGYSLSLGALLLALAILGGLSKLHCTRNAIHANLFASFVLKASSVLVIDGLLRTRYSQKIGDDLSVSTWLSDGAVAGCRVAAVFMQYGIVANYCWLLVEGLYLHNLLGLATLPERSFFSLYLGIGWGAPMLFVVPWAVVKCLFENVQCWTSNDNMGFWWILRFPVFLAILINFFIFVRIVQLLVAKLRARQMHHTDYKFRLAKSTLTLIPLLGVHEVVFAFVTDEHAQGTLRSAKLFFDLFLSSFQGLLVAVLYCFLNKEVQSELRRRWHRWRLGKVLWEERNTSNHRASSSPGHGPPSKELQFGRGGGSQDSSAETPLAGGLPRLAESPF

In the case of `CC[C@H](C)[C@H](NC(=O)[C@H](CC(C)C)NC(=O)[C@](C)(Cc1ccccc1)NC(=O)[C@H](CCC(=O)O)NC(=O)[C@@H](NC(=O)[C@H](Cc1ccccc1)NC(=O)[C@H](CCC(=O)O)NC(=O)C(C)(C)NC(=O)[C@H](CCC(N)=O)NC(=O)[C@H](C)NC(=O)[C@H](CCCCNC(=O)COCCOCCNC(=O)COCCOCCNC(=O)CC[C@H](NC(=O)CCCCCCCCCCCCC(=O)O)C(=O)O)NC(=O)[C@H](CCCN)NC(=O)[C@H](CC(=O)O)NC(=O)[C@H](CC(C)C)NC(=O)[C@](C)(CC(C)C)NC(=O)[C@@H](NC(=O)[C@H](CO)NC(=O)[C@H](Cc1ccncc1)NC(=O)[C@H](CC(=O)O)NC(=O)[C@H](CO)NC(=O)[C@@H](NC(=O)[C@](C)(Cc1ccccc1F)NC(=O)[C@@H](NC(=O)CNC(=O)[C@H](CCC(=O)O)NC(=O)C(C)(C)NC(=O)[C@@H](N)Cc1ccc(O)cc1)[C@@H](C)O)[C@@H](C)O)[C@@H](C)CC)[C@@H](C)CC)C(=O)N[C@@H](CCC(=O)O)C(=O)NCC(=O)NCC(=O)N[C@@H](CCCCNC(=O)COCCOCCNC(=O)COCCOCCNC(=O)CC[C@H](NC(=O)CCCCCCCCCCCCC(=O)O)C(=O)O)C(=O)N[C@@H](CO)C(=O)N[C@@H](CO)C(=O)NCC(=O)N[C@@H](C)C(=O)N1CCC[C@H]1C(=O)N1CCC[C@H]1C(=O)N1CCC[C@H]1C(=O)N[C@@H](CO)C(N)=O` [Example 159] (H-Y[Aib]EGT[αMePhe(2-F)]TSD[4Pal]SI[αMeL]LD[Orn]K([AEEA-AEEA-γGlu-C14 diacid])AQ[Aib]EFIE[αMeF]LIEGGK([AEEA-AEEA-γGlu-C14 diacid])SSGAPPPS-NH2), the Emax (hGIPR; [1]) is reported as 95.3%, the EC50 (hGIPR; [2]) is reported as 0.0198 nM and the EC50 (hGCGR; [3]) is reported as over 9950 nM. For the same molecule, the Emax (hGLP-1R; [4]) was 89.4%.

Work on `CC[C@H](C)[C@H](NC(=O)[C@H](CC(C)C)NC(=O)[C@H](CCCCNC(=O)COCCOCCNC(=O)COCCOCCNC(=O)CC[C@H](NC(=O)CCCc1ccc(C(C)(C)C)cc1)C(=O)O)NC(=O)[C@@H](CCC(=O)O)NC(=O)[C@@H](NC(=O)[C@H](Cc1ccccc1)NC(=O)[C@H](CCC(=O)O)NC(=O)C(C)(C)NC(=O)[C@H](CCC(N)=O)NC(=O)[C@H](C)NC(=O)[C@H](CCCCNC(=O)COCCOCCNC(=O)COCCOCCNC(=O)CC[C@H](NC(=O)CCCc1ccc(C(C)(C)C)cc1)C(=O)O)NC(=O)[C@H](CCCN)NC(=O)[C@H](CC(=O)O)NC(=O)[C@H](CC(C)C)NC(=O)[C@](C)(CC(C)C)NC(=O)[C@@H](NC(=O)[C@H](CO)NC(=O)[C@H](Cc1ccncc1)NC(=O)[C@H](CC(=O)O)NC(=O)[C@H](CO)NC(=O)[C@@H](NC(=O)[C@](C)(Cc1ccccc1F)NC(=O)[C@@H](NC(=O)CNC(=O)[C@H](CCC(=O)O)NC(=O)C(C)(C)NC(=O)[C@@H](N)Cc1ccc(O)cc1)[C@@H](C)O)[C@@H](C)O)[C@@H](C)CC)[C@@H](C)CC)C(=O)N[C@@H](CCC(=O)O)C(=O)NCC(=O)NCC(=O)N1CCC[C@H]1C(=O)N[C@@H](CO)C(=O)N[C@@H](CO)C(=O)NCC(=O)N[C@@H](C)C(=O)N1CCC[C@H]1C(=O)N1CCC[C@H]1C(=O)N1CCC[C@H]1C(=O)N[C@@H](CO)C(N)=O` [Example 67] yielded an EC50 (hGIPR; [5]) of 0.0417 nM, an Emax (hGIPR; [6]) of 91.9% and an Emax (hGIPR; [1]) of 95%. For the same molecule, the EC50 (hGCGR; [7]) was over 9950 nM, the EC50 (hGCGR; [3]) was over 9950 nM and the EC50 (hGLP-1R; [5]) was 12 nM. It also gave an Emax (hGLP-1R; [4]) of 91.7% and an EC50 (hGLP-1R; [2]) of 2.63 nM.

`CC[C@H](C)[C@H](NC(=O)[C@H](CCCN)NC(=O)[C@H](CC(=O)O)NC(=O)[C@H](CC(C)C)NC(=O)[C@](C)(CC(C)C)NC(=O)[C@@H](NC(=O)[C@H](CO)NC(=O)[C@H](Cc1ccncc1)NC(=O)[C@H](CC(=O)O)NC(=O)[C@H](CO)NC(=O)[C@@H](NC(=O)[C@](C)(Cc1ccccc1F)NC(=O)[C@@H](NC(=O)CNC(=O)[C@H](CCC(=O)O)NC(=O)C(C)(C)NC(=O)[C@@H](N)Cc1ccc(O)cc1)[C@@H](C)O)[C@@H](C)O)[C@@H](C)CC)C(=O)N[C@@H](C)C(=O)N[C@@H](CCC(N)=O)C(=O)NC(C)(C)C(=O)N[C@@H](CCCCNC(=O)COCCOCCNC(=O)COCCOCCNC(=O)CC[C@H](NC(=O)CCCCCCCCCCCCC(=O)O)C(=O)O)C(=O)N[C@@H](Cc1ccccc1)C(=O)N[C@H](C(=O)N[C@H](CCC(=O)O)C(=O)N[C@@](C)(Cc1ccc(O)cc1)C(=O)N[C@@H](CC(C)C)C(=O)N[C@H](C(=O)N[C@@H](CCC(=O)O)C(=O)NCC(=O)NCC(=O)N[C@@H](CCCCNC(=O)COCCOCCNC(=O)COCCOCCNC(=O)CC[C@H](NC(=O)CCCCCCCCCCCCC(=O)O)C(=O)O)C(=O)N[C@@H](CO)C(=O)N[C@@H](CO)C(=O)NCC(=O)N[C@@H](C)C(=O)N1CCC[C@H]1C(=O)N1CCC[C@H]1C(=O)N1CCC[C@H]1C(=O)N[C@@H](CO)C(N)=O)[C@@H](C)CC)[C@@H](C)CC` [Example 74] gave an EC50 (hGIPR; [5]) of 2.19 nM, an Emax (hGIPR; [6]) of 86.7% and an Emax (hGIPR; [1]) of 93.3 ± 2.89%. For the same molecule, the EC50 (hGIPR; [2]) was 0.0156 nM, the EC50 (hGCGR; [7]) was over 9950 nM and the EC50 (hGCGR; [3]) was over 9950 nM. The EC50 (hGLP-1R; [5]) was 59.5 nM and the EC50 (hGLP-1R; [2]) was 0.334 nM.

`CC[C@H](C)[C@H](NC(=O)[C@H](CC(C)C)NC(=O)[C@](C)(Cc1ccc(O)cc1)NC(=O)[C@@H](CCC(=O)O)NC(=O)[C@@H](NC(=O)[C@H](Cc1ccccc1)NC(=O)[C@H](CCCN)NC(=O)C(C)(C)NC(=O)[C@H](CCC(N)=O)NC(=O)[C@H](C)NC(=O)[C@H](CCCCNC(=O)COCCOCCNC(=O)COCCOCCNC(=O)CC[C@H](NC(=O)CCCCCCCCCCCCC(=O)O)C(=O)O)NC(=O)[C@H](CCCN)NC(=O)[C@H](CC(=O)O)NC(=O)[C@H](CC(C)C)NC(=O)[C@](C)(CC(C)C)NC(=O)[C@@H](NC(=O)C(C)(C)NC(=O)[C@@H](NC(=O)[C@H](CC(=O)O)NC(=O)[C@H](CO)NC(=O)[C@@H](NC(=O)[C@](C)(Cc1ccccc1F)NC(=O)[C@@H](NC(=O)CNC(=O)[C@H](CCC(=O)O)NC(=O)C(C)(C)NC(=O)[C@@H](N)Cc1ccc(O)cc1)[C@@H](C)O)[C@@H](C)O)C(C)C)[C@@H](C)CC)[C@@H](C)CC)C(=O)N[C@@H](CCCCNC(=O)COCCOCCNC(=O)COCCOCCNC(=O)CC[C@H](NC(=O)CCCCCCCCCCCCC(=O)O)C(=O)O)C(=O)NCC(=O)NCC(=O)N1CCC[C@H]1C(=O)N[C@@H](CO)C(=O)N[C@@H](CO)C(=O)NCC(=O)N[C@@H](C)C(=O)N1CCC[C@H]1C(=O)N1CCC[C@H]1C(=O)N1CCC[C@H]1C(=O)N[C@@H](CO)C(N)=O` [Example 350] showed an Emax (hGIPR; HEK293, cAMP, 37° C., 0.1% bovine casein and 1.0% human serum albumin, percent of maximal response to GIP(1-42)NH2) of 73.5%, an EC50 (hGIPR; [8]) of 0.0288 nM and an EC50 (hGCGR; cAMP, 37° C., 0.1% bovine casein (no human serum albumin), geometric mean) of over 9950 nM. The EC50 (hGCGR; cAMP, 37° C., 0.1% bovine casein and 1.0% human serum albumin, geometric mean (SEM, n)) was over 9950 nM, the Emax (hGLP-1R; HEK293, cAMP, 37° C., 0.1% bovine casein and 1.0% human serum albumin, percent of maximal response to GLP-1(7-36)NH2) was 91.4% and the Emax (hGLP-1R; HEK293, cAMP, 37° C., 0.1% bovine casein, percent of maximal response to GLP-1(7-36)NH2, arithmetic mean) was 95.9%. For the same molecule, the EC50 (hGLP-1R; [8]) was 0.202 nM.
